Several values for one entry are separate records, joined by “and”; a condition that tells them apart may be missing. Equal values may be shown once.
System: Swiss mice, Sarcoma 180 sc, mean tumor weight T/C
Test: NCI In Vivo Anticancer Drug Screen. Data for tumor model Sarcoma 180 (subcutaneous) in Swiss mice
Settings: endpoint: mean tumor weight, higher = larger tumour
In short: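 Transplantable tumors were established in mice, compound was given, then survival or tumor size was recorded. The treated value was divided by the vehicle-control value.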

Question: Which results are given for CCNc1nncs1?
Answer: T/C (dose: 13.7 mg/kg/injection, schedule: Q01DX007 (ip), vehicle: carboxymethylcellulose (CMC)): 59 % of control; T/C (dose: 16.37 mg/kg/injection, schedule: Q01DX007 (ip), vehicle: carboxymethylcellulose (CMC)): 97 % of control and 108 % of control; T/C (dose: 27.5 mg/kg/injection, schedule: Q01DX007 (ip), vehicle: carboxymethylcellulose (CMC)): 58 % of control; T/C (dose: 32.75 mg/kg/injection, schedule: Q01DX007 (ip), vehicle: carboxymethylcellulose (CMC)): 75 % of control and 98 % of control; T/C (dose: 55.0 mg/kg/injection, schedule: Q01DX007 (ip), vehicle: carboxymethylcellulose (CMC)): 47 % of control; T/C (dose: 110.0 mg/kg/injection, schedule: Q01DX007 (ip), vehicle: carboxymethylcellulose (CMC)): 41 % of control; T/C (dose: 131.0 mg/kg/injection, schedule: Q01DX007 (ip), vehicle: carboxymethylcellulose (CMC)): 46 % of control and 71 % of control

Question: Which T/C (dose: 125.0 mg/kg/injection, schedule: Q01DX007 (ip), vehicle: saline) does the source give for C[N+]1(CCC[N+]2(C)C[C@@H]3[C@H](C2)[C@@H]2C=C[C@H]3C2)CCOCC1 (some centres not stated) here?
Answer: 95 % of control

Question: And the T/C (dose: 500.0 mg/kg/injection, schedule: Q01DX007 (ip), vehicle: saline)?
Answer: 111 % of control

Question: Which T/C (dose: 0.5 mg/kg/injection, schedule: Q01DX007 (ip), vehicle: carboxymethylcellulose (CMC)) does the source give for Nc1n[se]nc1C(=O)O here?
Answer: 96 % of control

Question: And the T/C (dose: 1.0 mg/kg/injection, schedule: Q01DX007 (ip), vehicle: carboxymethylcellulose (CMC))?
Answer: 117 % of control

Question: And the T/C (dose: 2.0 mg/kg/injection, schedule: Q01DX007 (ip), vehicle: carboxymethylcellulose (CMC))?
Answer: 77 % of control

Question: How did the T/C (dose: 1.25 mg/kg/injection, schedule: Q01DX007 (ip), vehicle: carboxymethylcellulose (CMC)) turn out when Nc1nc(SC2=NCCN2)c2[nH]cnc2n1 was run?
Answer: 57 % of control

Question: And the T/C (dose: 2.5 mg/kg/injection, schedule: Q01DX007 (ip), vehicle: carboxymethylcellulose (CMC))?
Answer: 67 % of control

Question: And the T/C (dose: 5.0 mg/kg/injection, schedule: Q01DX007 (ip), vehicle: carboxymethylcellulose (CMC))?
Answer: 57 % of control

Question: Which results are given for O=C(O)C(O)C(F)(F)F (configuration not stated)?
Answer: T/C (dose: 15.5 mg/kg/injection, schedule: Q#A X014 (ip), vehicle: saline): 111 % of control; T/C (dose: 62.5 mg/kg/injection, schedule: Q#A X014 (ip), vehicle: saline): 90 % of control; T/C (dose: 125.0 mg/kg/injection, schedule: Q#A X014 (ip), vehicle: saline): 123 % of control

Question: For COC(=O)C1C(O)CCC2CN3CCc4c([nH]c5ccccc45)C3CC21 (configuration not stated), which T/C (dose: 150.0 mg/kg/injection, schedule: Q01DX007 (ip), vehicle: carboxymethylcellulose (CMC)) is on record?
Answer: 72 % of control

Question: Which results are given for CCc1c(CC(=O)O)c2cc(C)ccc2n1Cc1ccc(Cl)cc1?
Answer: T/C (dose: 6.25 mg/kg/injection, schedule: Q01DX007 (ip), vehicle: saline): 82 % of control; T/C (dose: 12.5 mg/kg/injection, schedule: Q01DX007 (ip), vehicle: saline): 98 % of control and 87 % of control; T/C (dose: 24.0 mg/kg/injection, schedule: Q01DX007 (ip), vehicle: carboxymethylcellulose (CMC)): 95 % of control; T/C (dose: 36.0 mg/kg/injection, schedule: Q01DX007 (ip), vehicle: carboxymethylcellulose (CMC)): 89 % of control; T/C (dose: 54.0 mg/kg/injection, schedule: Q01DX007 (ip), vehicle: carboxymethylcellulose (CMC)): 109 % of control; T/C (dose: 81.0 mg/kg/injection, schedule: Q01DX007 (ip), vehicle: carboxymethylcellulose (CMC)): 73 % of control; T/C (dose: 100.0 mg/kg/injection, schedule: Q01DX007 (ip), vehicle: saline): 64 % of control and 80 % of control

Question: Which T/C (dose: 250.0 mg/kg/injection, schedule: Q01DX007 (sc), vehicle: steriod suspending solution) does the source give for C[C@]12C=CC(=O)C=C1CC[C@@H]1[C@@H]2CC[C@]2(C)OC(=O)CC[C@@H]12 here?
Answer: 74 % of control and 99 % of control

Question: What about the T/C (dose: 500.0 mg/kg/injection, schedule: Q01DX007 (sc), vehicle: steriod suspending solution) of the same compound?
Answer: 83 % of control and 105 % of control

Question: Which T/C (dose: 3.5 mg/kg/injection, schedule: Q#A X014 (sc), vehicle: steriod suspending solution) does the source give for C[C@]12C=CC(=O)C=C1[C@@H](F)C[C@@H]1[C@@H]2[C@@H](O)C[C@@]2(C)[C@H]1CC[C@]2(O)C(=O)CO here?
Answer: 85 % of control

Question: And the T/C (dose: 7.0 mg/kg/injection, schedule: Q#A X014 (sc), vehicle: steriod suspending solution)?
Answer: 98 % of control

Question: And the T/C (dose: 10.0 mg/kg/injection, schedule: Q#A X014 (sc), vehicle: steriod suspending solution)?
Answer: 76 % of control

Question: And the T/C (dose: 15.5 mg/kg/injection, schedule: Q#A X014 (sc), vehicle: steriod suspending solution)?
Answer: 72 % of control

Question: And the T/C (dose: 22.5 mg/kg/injection, schedule: Q#A X014 (sc), vehicle: steriod suspending solution)?
Answer: 67 % of control

Question: What does the source list for NC(Cc1ccc(N(CCCl)CCCl)cc1)C(=O)O (configuration not stated)?
Answer: T/C (dose: 0.45 mg/kg/injection, schedule: Q#A X014 (ip), vehicle: carboxymethylcellulose (CMC)): 68 % of control; T/C (dose: 0.62 mg/kg/injection, schedule: Q#A X014 (ip), vehicle: carboxymethylcellulose (CMC)): 83 % of control; T/C (dose: 0.81 mg/kg/injection, schedule: Q01DX007 (ip), vehicle: carboxymethylcellulose (CMC)): 81 % of control; T/C (dose: 0.9 mg/kg/injection, schedule: Q#A X014 (ip), vehicle: carboxymethylcellulose (CMC)): 74 % of control; T/C (dose: 1.0 mg/kg/injection, schedule: Q#A X014 (ip), vehicle: methylcellulose (MC)): 80 % of control; T/C (dose: 1.08 mg/kg/injection, schedule: Q#A X014 (ip), vehicle: carboxymethylcellulose (CMC)): 76 % of control; T/C (dose: 1.25 mg/kg/injection, schedule: Q#A X014 (ip), vehicle: carboxymethylcellulose (CMC)): 78 % of control; T/C (dose: 1.62 mg/kg/injection, schedule: Q01DX007 (ip), vehicle: carboxymethylcellulose (CMC)): 78 % of control; T/C (dose: 1.62 mg/kg/injection, schedule: Q#A X014 (ip), vehicle: carboxymethylcellulose (CMC)): 78 % of control; T/C (dose: 1.8 mg/kg/injection, schedule: Q#A X014 (ip), vehicle: carboxymethylcellulose (CMC)): 60 % of control; T/C (dose: 2.0 mg/kg/injection, schedule: Q#A X014 (ip), vehicle: methylcellulose (MC)): 59 % of control; T/C (dose: 2.16 mg/kg/injection, schedule: Q#A X014 (ip), vehicle: carboxymethylcellulose (CMC)): 51 % of control; T/C (dose: 2.5 mg/kg/injection, schedule: Q#A X014 (ip), vehicle: carboxymethylcellulose (CMC)): 47 % of control; T/C (dose: 2.88 mg/kg/injection, schedule: Q01DX007 (ip), vehicle: carboxymethylcellulose (CMC)): 95 % of control; T/C (dose: 3.25 mg/kg/injection, schedule: Q01DX007 (ip), vehicle: carboxymethylcellulose (CMC)): 32 % of control; T/C (dose: 3.25 mg/kg/injection, schedule: Q#A X014 (ip), vehicle: carboxymethylcellulose (CMC)): 34 % of control; T/C (dose: 3.6 mg/kg/injection, schedule: Q01DX007 (ip), vehicle: carboxymethylcellulose (CMC)): 62 % of control; T/C (dose: 3.6 mg/kg/injection, schedule: Q#A X014 (ip), vehicle: carboxymethylcellulose (CMC)): 31 % of control; T/C (dose: 4.0 mg/kg/injection, schedule: Q#A X014 (ip), vehicle: methylcellulose (MC)): 47 % of control; T/C (dose: 4.8 mg/kg/injection, schedule: Q01DX007 (ip), vehicle: carboxymethylcellulose (CMC)): 42 % of control; T/C (dose: 5.0 mg/kg/injection, schedule: Q#A X014 (ip), vehicle: carboxymethylcellulose (CMC)): 7 % of control; T/C (dose: 7.2 mg/kg/injection, schedule: Q01DX007 (ip), vehicle: carboxymethylcellulose (CMC)): 20 % of control; T/C (dose: 8.0 mg/kg/injection, schedule: Q#A X014 (ip), vehicle: methylcellulose (MC)): 14 % of control

Question: For COc1ccc2c(c1)CC[C@@H]1[C@@H]2CC[C@]2(C)C[C@@](C)(O)C[C@@H]12, which T/C (dose: 0.25 mg/kg/injection, schedule: Q#A X014 (sc), vehicle: steriod suspending solution) is on record?
Answer: 100 % of control

Question: And the T/C (dose: 1.25 mg/kg/injection, schedule: Q#A X014 (sc), vehicle: steriod suspending solution)?
Answer: 84 % of control

Question: What about the T/C (dose: 2.5 mg/kg/injection, schedule: Q#A X014 (ip), vehicle: methylcellulose (MC)) of the same compound?
Answer: 94 % of control

Question: And the T/C (dose: 10.0 mg/kg/injection, schedule: Q#A X014 (ip), vehicle: methylcellulose (MC))?
Answer: 98 % of control

Question: Which T/C (dose: 5.2 mg/kg/injection, schedule: Q01DX007 (sc), vehicle: steriod suspending solution) does the source give for CC1C[C@@H]2[C@H]([C@@H](O)C[C@@]3(C)[C@H]2CC[C@]3(O)C(=O)CF)[C@@]2(C)CCC(=O)C=C12 (some centres not stated) here?
Answer: 106 % of control

Question: What about the T/C (dose: 10.5 mg/kg/injection, schedule: Q01DX007 (sc), vehicle: steriod suspending solution) of the same compound?
Answer: 105 % of control

Question: What about the T/C (dose: 21.2 mg/kg/injection, schedule: Q01DX007 (sc), vehicle: steriod suspending solution) of the same compound?
Answer: 81 % of control

Question: What about the T/C (dose: 42.5 mg/kg/injection, schedule: Q01DX007 (sc), vehicle: steriod suspending solution) of the same compound?
Answer: 45 % of control

Question: What about the T/C (dose: 62.0 mg/kg/injection, schedule: Q#A X014 (sc), vehicle: steriod suspending solution) of the same compound?
Answer: 55 % of control and 57 % of control

Question: What about the T/C (dose: 85.0 mg/kg/injection, schedule: Q01DX007 (sc), vehicle: steriod suspending solution) of the same compound?
Answer: 25 % of control

Question: And the T/C (dose: 93.5 mg/kg/injection, schedule: Q#A X014 (sc), vehicle: steriod suspending solution)?
Answer: 36 % of control and 41 % of control and 50 % of control

Question: And the T/C (dose: 210.75 mg/kg/injection, schedule: Q#A X014 (sc), vehicle: steriod suspending solution)?
Answer: 38 % of control and 52 % of control

Question: What about the T/C (dose: 300.0 mg/kg/injection, schedule: Q01DX007 (sc), vehicle: steriod suspending solution) of the same compound?
Answer: 26 % of control

Question: And the T/C (dose: 600.0 mg/kg/injection, schedule: Q01DX007 (sc), vehicle: steriod suspending solution)?
Answer: 20 % of control

Question: For CN(CC(=O)O)C(=N)N, which T/C (dose: 1500.0 mg/kg/injection, schedule: Q#A X014 (ip), vehicle: water) is on record?
Answer: 92 % of control

Question: And the T/C (dose: 2500.0 mg/kg/injection, schedule: Q#A X014 (ip), vehicle: water)?
Answer: 74 % of control

— PubChem BioAssay AID342 (DTP/NCI, 2004)
